Results: patent publication US4474775A, “Pyrazol-4-yl phosphates and insecticidal and acaricidal use” (priority 1979, dated 1984)

Columns and labels:
Tetranychus urticae = test: Effectiveness against Tetranychus urticae (Testing Example 4); format: in vivo; conditions: decrease rate grade, 500 ppm spray on kidney bean plant; for Efficacy grading, 2nd day: 2nd day after spraying; for Efficacy grading, 7th day: 7th day after spraying
Description: Testing Example 4: Effectiveness against Tetranychus urticae
A test compound was processed into an emulsifiable concentrate in accordance with the formulation of Example 6, and diluted with water (with Dyne®, spreading agent, as diluted 3000-fold) to prepare a 500 ppm aqueous solution. Ten female adults of Tetranychus urticae) were infected on the seedling of a kidney bean plant water-cultured in a polyethylene cup, and the cups were placed in a glass chamber (28° C.) for 24 hours, followed by spraying 20 ml of the aqueous solution on the kidney bean plant. After the sprayed cup was placed again in the glass chamber, the number of the adults and larvae living on the leaves was counted on the 2nd and 7th days after spraying. The test was repeated twice, and the test results are tabulated in Table 5 in terms of the efficacy grading as determined by calculating a decrease rate by the following equation:
Decrease rate (%)=[(number of mites tested-number of larvae living on the day of inspection)/(number of mites tested)]×100

Spodoptera litura = test: Effectiveness against Spodoptera litura (Testing Example 2); format: in vivo; conditions: second-instar larvae, 500 ppm spray on soybean, 28° C., 24 hours
Description: Testing Example 2: Effectiveness against Spodoptera litura
Twenty milliliters of a 500 ppm, water-diluted solution (with Dyne® Takeda Chem. Ind. Ltd., spreading agent, as diluted 3000-fold) of the test compound (the emulsifiable concentrate of Example 6) was sprayed on grown seedlings (10 days after germination) of soybean plant water-cultured in a polyethylene cup by the use of a spray gun (nozzle pressure of 1 kg/cm^2 gauge) in a spraying chamber. 2 hours after spraying, two main leaves of soybean plant were cut off and were placed into two cups (6 cm in diameter and 4 cm in depth), respectively, and ten second-instar larvae of Spodoptera litura were liberated. The cups were left in the room (28° C.) for 24 hours, and the dead larvae were counted.

[1] = Oral acute toxicity in mice (Toxicological Test); conditions: mouse, in vivo, five-week aged ddY-SLC strained male mice
From the text: Below tabulated are the oral acute toxicity values obtained with five-week aged, ddY-SLC strained male mice: […]

Laodelphax striatellus [2] = test: Effectiveness against Laodelphax striatellus, adults, dust on paddy-rice plant (Testing Example 1 (b)); format: in vivo; conditions: small brown planthopper, adults on dusted rice, 24 h
Description: (§1) Testing Example 1: Effectiveness against Laodelphax striatellus
(b) A test compound was processed into a dust preparation in accordance with the formulation of Example 8, and […] of the preparation was dusted on the potted paddy-rice plant (1/5,000 a) by the Berger Duster method. After dusting, leaves (15 cm long) of the paddy rice were cut off and were placed in a test tube containing 1 ml of water in the bottom, and ten adults of Laodelphax striatellus were released therein. After allowing the test tube to stand in the room (28° C.) for 24 hours, the dead insects were counted.

Laodelphax striatellus [3] = test: Effectiveness against Laodelphax striatellus, third-instar larvae, root dip (Testing Example 1 (a)); format: in vivo; conditions: 40 ppm emulsifiable concentrate dilution, root dip 2 hours, 28° C., 24 hours, read-out: Mortality (I)
Description: as §1
(a) A test compound was processed into an emulsifiable concentrate in accordance with the formulation of Example 6, followed by diluting with water to prepare a treating solution of a 40 ppm concentration. 2.5 ml of the treating solution was placed into a test tube (with 1.7 cm of diameter, 4 cm deep), in which three seedlings of a paddy-rice plant (on the 7th day after germination) were allowed to stand so their root portions were dipped into the solution for 2 hours. The seedlings were then transferred into a test tube having 1 ml water placed in the bottom, and ten third-instar larvae of Laodelphax striatellus were released. After allowing the test tube to stand in the room (28° C.) for 24 hours, the dead larvae were counted. The test is repeated twice, and the test results are tabulated, in terms of mortality, in Table 2 (I).

SMILES | Efficacy grading, 2nd day (Tetranychus urticae) | Efficacy grading, 7th day (Tetranychus urticae) | mortality at 500 ppm (Spodoptera litura) [%] | LD50 [1] [mg/kg] | Mortality (II) (Laodelphax striatellus [2]) [%] | mortality at 40 µg/mL (Laodelphax striatellus [3]) [%]
CCCSP(=O)(OCC)Oc1cnn(-c2ccc(C)cc2)c1 (stereo not shown) [compound 23] | 3 (Not less than 90) | 3 (Not less than 90) | 100 | 50 to 300 | – | –
CCCSP(=O)(OCC)Oc1cnn(-c2ccc(CCC)cc2)c1 (stereo not shown) [compound 24] | 3 (Not less than 90) | 3 (Not less than 90) | 100 | > 300 | 50 | 85
CCCSP(=O)(OCC)Oc1cnn(-c2cccc(C(F)(F)F)c2)c1 (stereo not shown) [compound 27] | – | – | 100 | 50 to 300 | – | –
CCCSP(=S)(OCC)Oc1cnn(-c2ccccc2)c1 (stereo not shown) [Compound No. 5, O-ethyl-O-(1-phenylpyrazol-4-yl)-S-n-propyl phosphorothiolothionate] | 3 (Not less than 90) | 3 (Not less than 90) | 100 | > 300 | – | –
CCCSP(=O)(OCC)Oc1cnn(-c2ccc(SC)cc2)c1 (stereo not shown) [compound 26] | – | – | 100 | > 300 | – | –
CCCSP(=S)(OCC)Oc1cnn(-c2ccc(Cl)cc2Cl)c1 (stereo not shown) [compound 30] | 3 (Not less than 90) | 3 (Not less than 90) | 100 | > 300 | – | –
CCCSP(=O)(OCC)Oc1cnn(-c2ccc(Cl)cc2)c1 (stereo not shown) [Compound No. 16, O-ethyl-O-[1-(4-chlorophenyl)pyrazol-4-yl]-S-n-propyl phosphorothiolate] | 3 (Not less than 90) | 3 (Not less than 90) | 100 | > 300 | 75 | 97
CCCSP(=S)(OCC)Oc1cnn(-c2ccc(Cl)c(Cl)c2)c1 (stereo not shown) [compound 32] | 3 (Not less than 90) | 3 (Not less than 90) | 100 | > 300 | – | –
CCCSP(=O)(OCC)Oc1cnn(-c2ccc(I)cc2)c1 (stereo not shown) [compound 20] | 3 (Not less than 90) | 3 (Not less than 90) | 100 | > 300 | 65 | 100
CCCOP(=S)(OCC)Oc1cn(-c2ccccc2)nc1C(=O)OCC (stereo not shown) [compound 6] | – | – | – | > 300 | 70 | 97
CCCSP(=O)(OCC)Oc1cnn(-c2cc([N+](=O)[O-])ccc2C)c1 (stereo not shown) [compound 39] | – | – | 100 | > 300 | – | –
CCCSP(=O)(OCC)Oc1cnn(-c2c(C)cccc2C)c1 (stereo not shown) [compound 36] | 3 (Not less than 90) | 3 (Not less than 90) | 100 | > 300 | – | –
CCCSP(=O)(OCC)Oc1cnn(-c2ccc(Cl)cc2C)c1 (stereo not shown) [compound 38] | 3 (Not less than 90) | 3 (Not less than 90) | 100 | > 300 | – | –
CCOP(=S)(OCC)Oc1cnn(-c2ccccc2C)c1 [compound 21] | 3 (Not less than 90) | 0 (Not more than 20) | – | > 300 | – | –
CCCSP(=S)(OCC)Oc1cnn(-c2ccc(F)cc2)c1 (stereo not shown) [compound 19] | 3 (Not less than 90) | 3 (Not less than 90) | 100 | > 300 | – | –
CCCSP(=S)(OCC)Oc1cnn(-c2cc([N+](=O)[O-])ccc2C)c1 (stereo not shown) [compound 40] | – | – | 100 | > 300 | – | –

SMILES | Efficacy grading, 2nd day (Tetranychus urticae) | Efficacy grading, 7th day (Tetranychus urticae) | mortality at 500 ppm (Spodoptera litura) [%] | LD50 [1] [mg/kg] | Mortality (II) (Laodelphax striatellus [2]) [%] | mortality at 40 µg/mL (Laodelphax striatellus [3]) [%]
CCCSP(=S)(OCC)Oc1cnn(-c2ccc(Cl)cc2)c1 (stereo not shown) [Compound No. 17] | 3 (Not less than 90) | 3 (Not less than 90) | 100 | > 300 | 35 | 100
CCCSP(=O)(OCC)Oc1cnn(-c2ccc(F)cc2)c1 (stereo not shown) [compound 18] | 3 (Not less than 90) | 3 (Not less than 90) | 100 | > 300 | 100 | 100
CCCSP(=S)(OCC)Oc1cn(-c2ccccc2)nc1C(=O)OCC (stereo not shown) [compound 8] | 3 (Not less than 90) | 0 (Not more than 20) | 100 | > 300 | – | –
CCCSP(=O)(OCC)Oc1cnn(-c2cccc(Cl)c2)c1 (stereo not shown) [compound 13] | 3 (Not less than 90) | 3 (Not less than 90) | 100 | > 300 | 90 | 100
CCCSP(=S)(OCC)Oc1cnn(-c2ccc(Br)cc2)c1 (stereo not shown) [compound 10] | 3 (Not less than 90) | 3 (Not less than 90) | 100 | > 300 | – | –
CCCSP(=S)(OCC)Oc1cnn(-c2cc(Cl)c(Cl)cc2Cl)c1 (stereo not shown) [compound 43] | 3 (Not less than 90) | 3 (Not less than 90) | 100 | > 300 | 40 | 85
CCCSP(=S)(OCC)Oc1cnn(-c2cccc(C(F)(F)F)c2)c1 (stereo not shown) [compound 28] | – | – | 100 | > 300 | – | –
CCCSP(=S)(OCC)Oc1cnn(-c2cccc(Cl)c2)c1 (stereo not shown) [compound 14] | 3 (Not less than 90) | 0 (Not more than 20) | 100 | > 300 | – | –
CCOP(=S)(OCC)Oc1cnn(-c2ccc(Cl)cc2)c1 [compound 15] | 3 (Not less than 90) | 0 (Not more than 20) | – | > 300 | – | –
CCCSP(=O)(OCC)Oc1cnn(-c2ccc3c(c2)OCO3)c1 (stereo not shown) [compound 41] | 3 (Not less than 90) | 3 (Not less than 90) | 100 | 50 to 300 | – | –
CCOP(=S)(OCC)Oc1cnn(-c2ccccc2Cl)c1 [compound 11] | 3 (Not less than 90) | 0 (Not more than 20) | – | > 300 | – | –
CCCSP(=O)(OCC)Oc1cnn(-c2ccccc2C)c1 (stereo not shown) [compound 22] | 3 (Not less than 90) | 3 (Not less than 90) | 100 | ~300 | 63 | 85
CCCSP(=O)(OCC)Oc1cnn(-c2cc(Cl)c(Cl)cc2Cl)c1 (stereo not shown) [compound 42] | 3 (Not less than 90) | 3 (Not less than 90) | 100 | > 300 | 40 | 100
CCCSP(=O)(OCC)Oc1cnn(-c2ccc(Cl)cc2F)c1 (stereo not shown) [compound 37] | 3 (Not less than 90) | 3 (Not less than 90) | 100 | > 300 | 90 | 100
CCCSP(=O)(OCC)Oc1cn(-c2ccccc2)nc1C(=O)OCC (stereo not shown) [compound 7] | 3 (Not less than 90) | 3 (Not less than 90) | 100 | > 300 | – | –
CCCSP(=O)(OCC)Oc1cnn(-c2ccc(Br)cc2)c1 (stereo not shown) [Compound No. 9] | 3 (Not less than 90) | 3 (Not less than 90) | 100 | > 300 | 75 | 100
